In patent publication US5840859A, “(Aminostyryl)pyridinium compounds for radiolabelling cell membranes” (Research Corporation Technologies, Inc., priority 1996, dated 1998):

Experiments:
[1] = tested on: inflammatory lesions / abscesses; conditions: cited from earlier work
[2] = tested on: mixed leukocytes; assay: Mixed leukocyte labeling yield; format: cell-based, canine; conditions: for Mixed leukocyte labeling yield: 125I labeled, average, 10-30 μCi, 250-325 Ci/mmol
Protocol: Labeling of mixed leukocytes (harvested from 20 mL canine blood) with 4a-d was performed using five different procedures: 1) labeling in Diluent C (a commercial non-ionic cell labeling media developed by Zynaxis Co. that is not approved for human use) after two saline washes of the cell pellet; 2) labeling in saline after two saline washes of the cell pellet; 3) labeling in saline with no saline washes of the cell pellet; 4 and 5) labeling in ether 10% or 100% platelet poor plasma (PPP).
Unwashed mixed leukocytes in 1.5 mL 10% PPP in saline were also tested. […]
This was evaporated to dryness under vacuum in a speed vac and reconstituted into 30 ul ethanol. Forty milliliters of canine blood was drawn into a 60 mL syringe containing 6.5 mL acetate-citrate-dextrose solution. To this was added 5.5 mL 2% methyl cellulose in saline. The contents of the syringe were gently mixed by several inversions of the syringe and the syringe placed vertically, needle end up, for 45 minutes to allow the red blood cells to settle. The plasma was drawn off and placed into a 50 mL Falcon tube. The tube was centrifuged at 1100 rpm for 15 minutes to pellet the leukocytes. The plasma was removed and the cells resuspended in 2 mL saline. In a 1 mL plastic microcentrifuge was placed 0.5 mL saline. […] The cells were then underlayered with 7.5 mL of platelet poor plasma and centrifuged at 1600 rpm for seven minutes to pellet the cells. The supernatant was removed, the cells resuspended in 10 mL saline, and transferred to a new tube. The supernatant, cells, and labeling tube were counted for radioactivity. The cells were centrifuged again at 1600 rpm for 7 minutes, the supernatant removed, and the cells resuspended.
A sample of canine blood (20 mL) was drawn into a 60 mL syringe containing 3 mL acetate-citrate-dextrose (ACD) solution. To this was added 3 mL 2% methyl cellulose in saline. The contents of the syringe were gently mixed by several inversions, and the syringe was then placed vertically, needle end up, for 45 min to allow the red blood cells to settle. The plasma was drawn off and transferred to a 50 mL Falcon tube. The tube was centrifuged at 1100 rpm for 15 min to pellet the leukocytes. The plasma was removed and the cells resuspended in 10 mL saline. The tube was centrifuged at 1600 rpm for 7 min, the supernatant removed, and the cells resuspended in 10 mL saline and recentrifuged at 1600 rpm for 7 min. The supernatant was then removed and the cells resuspended in 2 mL Diluent C. Into a 1 mL plastic microcentrifuge tube was placed 0.5 mL Diluent C. […] The indium complex in Diluent C was immediately added to the leukocytes and the cells were placed vertically on a Nutator rocking apparatus and rocked gently for 30 min at room temperature. The cells were then underlayered with 5 mL of platelet poor plasma and centrifuged at 1600 rpm for 7 min to pellet the cells. The supernatant was removed, the cells resuspended in 10 mL saline, and transferred to a new tube. The supernatant, cells, and labeling tube were counted for radioactivity. The cells were centrifuged again at 1600 rpm for 7 min, the supernatant removed, and the cells resuspended.

[3] = tested on: sodium urate induced abscess in the stifle joint; assay: Localization of labeled leukocytes in dogs having a sodium urate induced abscess in the stifle joint (aspirate, gamma camera images)
Excerpt: Mixed leukocytes labeled with 4b and ^111 In-oxine labeled mixed leukocytes were compared in dogs having a sodium urate-induced inflammation in the left stifle joint. […]

[4] = tested on: mononuclear leukocytes; assay: Mononuclear leukocyte labeling yield; format: cell-based; conditions: harvested from 20 mL canine blood via isolymph method
Protocol: Using ^125 I-4b and ^131 I-4b, mononuclear leukocytes harvested from 20 mL canine blood via the isolymph method (sodium diatrizoste and Ficol 400, d=1.077) were labeled in 77% and 85% yields, respectively. Thus, the present compounds can label both lymphocytes and mixed leukocytes in high yields, and that the latter can be used to image sites of focal inflammation.

[5] = labeled leukocytes, McAfee et al.
[6] = Table 3 Experiment 3, 4b 500 Ci/mmol, Diluent C after 2 × 10 mL saline washes
[7] = Table 3 Experiment 4, 4b 1000 Ci/mmol, Diluent C after 2 × 10 mL saline washes
[8] = Table 3 Experiment 5, 4b 800 Ci/mmol, saline after 2 × 10 mL saline washes
[9] = Table 3 Experiment 6, 4b 800 Ci/mmol, saline after 2 × 10 mL saline washes
[10] = 48 hour, estimated from region of interest (ROI) measurements
[11] = Experiment 3, injected 88 μCi 131I-4b, 331 μCi 111In-oxine, Diluent C
[12] = Experiment 4, injected 255 μCi 131I-4b, 288 μCi 111In-oxine, Diluent C
[13] = Experiment 5, injected 272 μCi 131I-4b, 326 μCi 111In-oxine, saline
[14] = Experiment 6, injected 211 μCi 131I-4b, 378 μCi 111In-oxine, saline

## C/C(=N\[O-])[C@@H](C)[N-]CC(C)(C)C[N-][C@H](C)/C(C)=N/O.[O]=[99Tc+3] (racemic) [^99m Tc-HMPAO]
[1]; in vitro and in vivo
  stability compared with the 111In radiopharmaceuticals: less stable both in vitro and in vivo
[1]; labeled leukocytes, in vivo
  nonspecific biodistribution: diffuse abdominal radioactivity, gall bladder uptake
[1]; [5]
  target to background ratios compared with cells labeled with 111In-oxine: lower target to background ratios
  uptake in abscesses compared with cells labeled with 111In-oxine: lower absolute uptake in abscesses
[1]; printed as early as three hours post injection
  renal excretion of unidentified polar species containing 99mTc, earliest time: three hours post injection

## CCCCCCCCN(CCCCCCCC)c1ccc(/C=C/c2cc[n+](C/C=C/[125I])cc2)cc1 [Compound 4c]
[2]; Diluent C
  Mixed leukocyte labeling yield: 52%
[2]; saline, 2 washes of pellet
  Mixed leukocyte labeling yield: 32%
[2]; saline, no washes of pellet
  Mixed leukocyte labeling yield: 6%
[2]; five labeling procedures compared
  Leukocyte labeling (in words): only labeled leukocytes in useful yields using Diluent C

## [In+3].[O-]c1cccc2cccnc12.[O-]c1cccc2cccnc12.[O-]c1cccc2cccnc12 [^111 In-oxine, reference compound]
[1]; compared with all agents yet tested
  absolute inflammatory lesion uptake: highest absolute inflammatory lesion uptake of all agents yet tested
[2]; Table 3 Experiment 1, 4b 250 Ci/mmol, Diluent C after 2 × 10 mL saline washes
  Labeling Yield: 88%
[2]; Table 3 Experiment 2, 4b footnotes a,c (250 / 1000 Ci/mmol)
  Labeling Yield: 91%
[2]; [6]
  Labeling Yield: 85%
[2]; [7]
  Labeling Yield: 94%
[2]; [8]
  Labeling Yield: 89%
[2]; [9]
  Labeling Yield: 87%
[3]; 3 hours
  abscess visibility in gamma camera images: the abscess was visible at 3 hours
[3]; [10]
  percent injected dose per organ, liver: 13.1%
[3]; Experiment 1
  % aspirate radioactivity cell bound: 95%
[3]; Experiment 1, injected 84 μCi 125I-4b, 500 μCi 111In-oxine, Diluent C
  % inj. dose in abscess aspirate: 0.383%
[3]; Experiment 2
  % aspirate radioactivity cell bound: 98%
[3]; Experiment 2, injected 66 μCi 125I-4b, 312 μCi 111In-oxine
  % inj. dose in abscess aspirate: 0.088%
[3]; Experiment 3
  % aspirate radioactivity cell bound: 79%
[3]; Experiment 3, 3 hour
  abscess to contralateral knee ratio: 2.7
  abscess to surrounding tissue ratio: 2.0
[3]; [11]
  % inj. dose in abscess aspirate: 0.019%
[3]; Experiment 4
  % aspirate radioactivity cell bound: 88%
[3]; Experiment 4, 48 hours
  abscess to contralateral knee ratio: 4.0
  abscess to surrounding tissue ratio: 2.6
[3]; [12]
  % inj. dose in abscess aspirate: 0.056%
[3]; Experiment 5
  % aspirate radioactivity cell bound: 92%
[3]; [13]
  % inj. dose in abscess aspirate: 0.021%
[3]; Experiment 6
  131I/111In or 125I/111In in aspirate: 22
  % aspirate radioactivity cell bound: 78%
[3]; [14]
  % inj. dose in abscess aspirate: 0.016%
[3]; between 1 hour and 3 hours
  gamma camera images, comparison of 4b and 111In-oxine: comparable

## CCCCCCN(CCCCCC)c1ccc(/C=C/c2cc[n+](C/C=C/[131I])cc2)cc1 [^131 I-4b, 3-[4-[2-(N,N-dihexylamino)phenyl]ethyenyl]pyridino-E-1-[^131 I]-iodo-propene]
[4]
  Mononuclear leukocyte labeling yield: 85%
[2]; Example 10, of 372 uCi added, saline, 20 min
  131I bound to the cells: 340 uCi
[2]; Example 10, saline, 372 uCi, 20 min, room temperature, after second centrifugation
  131I bound to the cells (labeling yield): 91%
[2]; [6]
  Labeling Yield: 88%
[2]; [7]
  Labeling Yield: 88%
[2]; [8]
  Labeling Yield: 86%
[2]; [9]
  Labeling Yield: 87%
[3]; [10]
  percent injected dose per organ, abscess: 1.15%
[3]; Experiment 3
  131I/111In or 125I/111In in aspirate: 2.6
  % aspirate radioactivity cell bound: 93%
[3]; Experiment 3, 3 hour
  abscess to contralateral knee ratio: 3.7
  abscess to surrounding tissue ratio: 2.3
[3]; [11]
  % inj. dose in abscess aspirate: 0.050%
[3]; Experiment 4
  131I/111In or 125I/111In in aspirate: 3.5
  % aspirate radioactivity cell bound: 97%
[3]; Experiment 4, 48 hours
  abscess to contralateral knee ratio: 9.1
  abscess to surrounding tissue ratio: 6.3
[3]; [12]
  % inj. dose in abscess aspirate: 0.194%
[3]; Experiment 5
  131I/111In or 125I/111In in aspirate: 4.3
  % aspirate radioactivity cell bound: 95%
[3]; [13]
  % inj. dose in abscess aspirate: 0.092%
[3]; Experiment 6
  131I/111In or 125I/111In in aspirate: 22
  % aspirate radioactivity cell bound: 94%
[3]; [14]
  % inj. dose in abscess aspirate: 0.355%
[3]; dog, in vivo
  lung sequestration of labeled leukocytes: No lung sequestration was observed
[3]; dog, in vivo, 2880 min
  percent injected dose per organ, liver: 8.7%
[3]; sodium urate induced abscess, dog
  localization of labeled leukocytes in induced inflammatory site/abscess, compared with 111In-oxine (111In-labeled) leukocytes: higher degree of localization

## indium-111 complex of N-[methyl(2-(Di-4-ASP-propylthiourea)ethyl)carbamide]-trans-1,2-diaminocyclohexane-N,N',N'-triacetic acid [^111 In-19a]
[2]; Diluent C
  Mixed leukocyte labeling yield, 111In complexes: 4%

## indium-111 complex of N-[methyl(2-(Di-6-ASP-acetamido)ethyl)carbamide]-trans-1,2-diaminocyclohexane-N,N',N'-triacetic acid [^111 In-18]
[2]; Diluent C
  Mixed leukocyte labeling yield, 111In complexes: 21%

## indium-111 complex of N-[methyl(2-(Di-10-ASP-propylthiourea)ethyl)carbamide]-trans-1,2-diaminocyclohexane-N,N',N'-triacetic acid [^111 In-19b]
[2]; Diluent C
  Mixed leukocyte labeling yield, 111In complexes: 84%
[2]; Example 15, Diluent C, 44.4 μCi, 30 min, room temperature
  111In bound to the cells (labeling yield): 84%
[2]; Example 15, of 44.4 μCi added
  111In bound to the cells: 37.4 μCi
